Key:
A375 = assay: 48 h Cytotoxicity A375; assay type: cell-based; conditions: Homo sapiens, A-375
[1] = target: EmCV Cap-independent translation; assay: In vitro translation assay, FF-EmCV-Ren construct, cap-independent (Ren luciferase); assay type: biochemical, rabbit reticulocyte lysates
In short: (§1)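 Rabbit reticulocyte lysate with -Met/-Leu translation mixes pre-incubated with compound 1 h at room temperature, then 0.1 μg bicistronic RNA added and translated 2 h at 30° C. Dual-Glo read-out: FF signal reports cap-dependent, Ren signal IRES-driven translation. Counter assay adds compound after translation to flag luciferase interference.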

[2] = target: HCV cap-independent translation; assay: In vitro translation assay, FF-HCV-Ren construct, cap-independent (Ren luciferase); assay type: biochemical, rabbit reticulocyte lysates
In short: as §1

[3] = target: HCV cap-dependent translation; assay: In vitro translation assay, FF-HCV-Ren construct, cap-dependent (FF luciferase); assay type: biochemical, rabbit reticulocyte lysates
In short: as §1

[4] = target: EmCV Cap-dependent translation; assay: In vitro translation assay, FF-EmCV-Ren construct, cap-dependent (FF luciferase); assay type: biochemical, rabbit reticulocyte lysates
In short: as §1

SMILES	IC50 (A375)	IC50 [1]	IC50 [2]	IC50 [3]	IC50 [4]
O=C(/C=C/c1nc2ccccc2[nH]1)c1c(-c2cccnc2)c2cc(Cl)ccc2[nH]c1=O [Compound 6, 3-(3-1H-Benzoimidazol-2-yl-acryloyl)-6-chloro-4-pyridin-3-yl-1H-quinolin-2-one]	> 20 µM	2 to 10 µM	10 to 20 µM	10 to 20 µM	2 to 10 µM
COc1cncc(/C=C/C(=O)c2c(-c3ccccc3)c3cc(Cl)ccc3[nH]c2=O)c1 [Compound 66, 3-[(2E)-3-(5-methoxy(3-pyridyl))prop-2-enoyl]-6-chloro-4-phenylhydroquinolin-2-one]	< 2 µM	2 to 10 µM	2 to 10 µM	2 to 10 µM	2 to 10 µM
CCOC(=O)c1cncc(-c2c(C(=O)/C=C/c3ccccn3)c(=O)[nH]c3ccc(Cl)cc23)c1 [Compound 107, Ethyl 5-[3-((2E)-3-(2-pyridyl)prop-2-enoyl)-6-chloro-2-oxo-4-hydroquinolyl]pyridine-3-carboxylate]	2 to 10 µM	10 to 20 µM	10 to 20 µM	10 to 20 µM	> 20 µM
O=C(/C=C/c1c(F)cccc1F)c1c(-c2ccccc2)c2cc(Cl)ccc2[nH]c1=O [Compound 42, 6-Chloro-3-[3-(2,6-difluoro-phenyl)-acryloyl]-4-phenyl-1H-quinolin-2-one]	< 2 µM	2 to 10 µM	2 to 10 µM	2 to 10 µM	2 to 10 µM
COCc1cncc(/C=C/C(=O)c2c(-c3ccccc3)c3cc(Cl)ccc3[nH]c2=O)c1 [Compound 73, 3-{(2E)-3-[5-(methoxymethyl)(3-pyridyl)]prop-2-enoyl}-6-chloro-4-phenylhydroquinolin-2-one]	< 2 µM	2 to 10 µM	2 to 10 µM	2 to 10 µM	2 to 10 µM
O=C(/C=C/c1ccccn1)c1c(-c2ccc(F)cc2)c2cc(Cl)ccc2[nH]c1=O [Compound 78, (E)-6-Chloro-4-(4-fluoro-phenyl)-3-(3-pyridin-2-yl-acryloyl)-1H-quinolin-2-one]	< 2 µM	2 to 10 µM	2 to 10 µM	2 to 10 µM	2 to 10 µM
Nc1ccc2[nH]c(=O)c(C(=O)CCc3nc4ccccc4[nH]3)c(-c3ccccc3)c2c1 [Compound 14, 6-Amino-3-(3-1H-benzoimidazol-2-yl-propionyl)-4-phenyl-1H-quinolin-2-one]	> 20 µM	> 20 µM	> 20 µM	> 20 µM	> 20 µM
O=C(/C=C/c1ccccc1)c1c(-c2cccnc2)c2cc(Cl)ccc2[nH]c1=O [Compound 7, 6-Chloro-3-(3-phenyl-acryloyl)-4-pyridin-3-yl-1H-quinolin-2-one]	10 to 20 µM	10 to 20 µM	10 to 20 µM	10 to 20 µM	2 to 10 µM
O=C(/C=C/c1cnccn1)c1c(-c2ccccc2)c2cc(Cl)ccc2[nH]c1=O [Compound 52, 6-Chloro-4-phenyl-3-(3-pyrazin-2-yl-acryloyl)-1H-quinolin-2-one]	2 to 10 µM	2 to 10 µM	2 to 10 µM	10 to 20 µM	2 to 10 µM
O=C(/C=C/c1cncc(F)c1)c1c(-c2ccc(OC(F)(F)F)cc2)c2cc(Cl)ccc2[nH]c1=O [Compound 87, 3-[(2E)-3-(5-fluoro(3-pyridyl))prop-2-enoyl]-6-chloro-4-[4-(trifluoromethoxy)phenyl]hydroquinolin-2-one]	2 to 10 µM	2 to 10 µM	2 to 10 µM	2 to 10 µM	2 to 10 µM
COc1ccc(-c2c(C(=O)/C=C/c3ccccn3)c(=O)[nH]c3ccc(Cl)cc23)cc1 [Compound 80, 3-((2E)-3-(2-pyridyl)prop-2-enoyl)-6-chloro-4-(4-methoxyphenyl)hydroquinolin-2-one]	2 to 10 µM	2 to 10 µM	2 to 10 µM	10 to 20 µM	2 to 10 µM
O=C(/C=C/c1cncc(Cl)c1)c1c(-c2ccccc2)c2cc(Cl)ccc2[nH]c1=O [Compound 115, (E)-6-chloro-3-(3-(5-chloropyridin-3-yl)acryloyl)-4-phenylquinolin-2(1H)-one]	< 2 µM	2 to 10 µM	2 to 10 µM	2 to 10 µM	2 to 10 µM
O=C(/C=C/c1cncc(C(F)(F)F)c1)c1c(-c2ccccc2)c2cc(Cl)ccc2[nH]c1=O [Compound 76, 3-{(2E)-3-[5-(trifluoromethyl)(3-pyridyl)]prop-2-enoyl}-6-chloro-4-phenylhydroquinolin-2-one]	< 2 µM	2 to 10 µM	2 to 10 µM	2 to 10 µM	2 to 10 µM

From patent publication US10577349B2 (Sanford Burnham Prebys Medical Discovery Institute, priority 2015, dated 2020)
